From ChEMBL document CHEMBL2074429, “ATP-dependent primary active transport of cysteinyl leukotrienes across liver canalicular membrane. Role of the ATP-dependent transport system for glutathione S-conjugates” (J Biol Chem, 1990)
Each block holds one molecule with its values, some of them ahead of it.

Assays:
Type in all cases: functional, cell membranes, Plasma membrane vesicle
[1] = target: ATP-binding cassette sub-family C member 2 (Rattus norvegicus, UniProt Q63120); assay: (§1) TP_TRANSPORTER: uptake in liver plasma membrane vesicles of Wistar rat
[2] = target: T1, ATP-binding cassette sub-family C member 2 (ABCC2) (Rattus norvegicus, UniProt Q63120); assay: TP_TRANSPORTER: inhibition of LTC4 uptake (LTC4: 0.01 uM, Vinblastine: 100 uM) in liver plasma membrane vesicles of Wistar rat; design: scale not given: the % may be the effect or the level left; conditions: probe LTC4 (0.01 uM), read-out: Activity
[3] = target: T1, ATP-binding cassette sub-family C member 2 (ABCC2); assay: TP_TRANSPORTER: inhibition of LTC4 uptake (LTC4: 0.01 uM, Vincristine: 100 uM) in liver plasma membrane vesicles of Wistar rat; design: scale not given: the % may be the effect or the level left; conditions: probe LTC4 (0.01 uM), read-out: Activity
[4] = substrate: CCCCC/C=C\C\C=C/C=C/C=C/[C@@H](SC[C@@H](NC(=O)CC[C@H](N)C(=O)O)C(=O)NCC(=O)O)[C@@H](O)CCCC(=O)O; assay: as §1
[5] = substrate: CCCCC/C=C\C\C=C/C=C/C=C/[C@@H](SC[C@H](N)C(=O)NCC(=O)O)[C@@H](O)CCCC(=O)O; assay: as §1
[6] = substrate: CCCCC/C=C\C\C=C/C=C/C=C/[C@@H](SC[C@H](NC(C)=O)C(=O)O)[C@@H](O)CCCC(=O)O; assay: as §1

Activity [1]: substrate [+]
Molecule: CCCCC/C=C\C\C=C/C=C/C=C/[C@@H](SC[C@H](N)C(=O)O)[C@@H](O)CCCC(=O)O [LEUKOTRIEN E4]

activity at 100 µM [2]: 29%
Molecule: CC[C@]1(O)C[C@@H]2CN(CCc3c([nH]c4ccccc34)[C@@](C(=O)OC)(c3cc4c(cc3OC)N(C)[C@H]3[C@@](O)(C(=O)OC)[C@H](OC(C)=O)[C@]5(CC)C=CCN6CC[C@]43[C@@H]65)C2)C1 [VINBLASTINE]

activity at 100 µM [3]: 42%
Molecule: CC[C@]1(O)C[C@H]2CN(CCc3c([nH]c4ccccc34)[C@@](C(=O)OC)(c3cc4c(cc3OC)N(C=O)[C@H]3[C@@](O)(C(=O)OC)[C@H](OC(C)=O)[C@]5(CC)C=CCN6CC[C@]43[C@@H]65)C2)C1 [VINCRISTINE]

B1: ATP-binding cassette sub-family C member 2 (Rattus norvegicus) (protein)
chain: MDKFCNSTFWDLSLLESPEADLPLCFEQTVLVWIPLGFLWLLAPWQLYSVYRSRTKRSSITKFYLAKQVFVVFLLILAAIDLSLALTEDTGQATVPPVRYTNPILYLCTWLLVLAVQHSRQWCVRKNSWFLSLFWILSVLCGVFQFQTLIRALLKDSKSNMAYSYLFFVSYGFQIVLLILTAFSGPSDSTQTPSVTASFLSSITFSWYDRTVLKGYKHPLTLEDVWDIDEGFKTRSVTSKFEAAMTKDLQKARQAFQRRLQKSQRKPEATLHGLNKKQSQSQDVLVLEEAKKKSEKTTKDYPKSWLIKSLFKTFHVVILKSFILKLIHDLLVFLNPQLLKLLIGFVKSSNSYVWFGYICAILMFAVTLIQSFCLQSYFQHCFVLGMCVRTTVMSSIYKKALTLSNLARKQYTIGETVNLMSVDSQKLMDATNYMQLVWSSVIQITLSIFFLWRELGPSILAGVGVMVLLIPVNGVLATKIRNIQVQNMKNKDKRLKIMNEILSGIKILKYFAWEPSFQEQVQGIRKKELKNLLRFGQLQSLLIFILQITPILVSVVTFSVYVLVDSANVLNAEKAFTSITLFNILRFPLSMLPMVTSSILQASVSVDRLERYLGGDDLDTSAIRRVSNFDKAVKFSEASFTWDPDLEATIQDVNLDIKPGQLVAVVGTVGSGKSSLVSAMLGEMENVHGHITIQGSTAYVPQQSWIQNGTIKDNILFGSEYNEKKYQQVLKACALLPDLEILPGGDMAEIGEKGINLSGGQKQRVSLARAAYQDADIYILDDPLSAVDAHVGKHIFNKVVGPNGLLAGKTRIFVTHGIHFLPQVDEIVVLGKGTILEKGSYRDLLDKKGVFARNWKTFMKHSGPEGEATVNNDSEAEDDDDGLIPTMEEIPEDAASLAMRRENSLRRTLSRSSRSSSRRGKSLKNSLKIKNVNVLKEKEKEVEGQKLIKKEFVETGKVKFSIYLKYLQAVGWWSILFIILFYGLNNVAFIGSNLWLSAWTSDSDNLNGTNNSSSHRDMRIGVFGALGLAQGICLLISTLWSIYACRNASKALHGQLLTNILRAPMRFFDTTPTGRIVNRFSGDISTVDDLLPQTLRSWMMCFFGIAGTLVMICMATPVFAIIIIPLSILYISVQVFYVATSRQLRRLDSVTKSPIYSHFSETVTGLPIIRAFEHQQRFLAWNEKQIDINQKCVFSWITSNRWLAIRLELVGNLVVFCSALLLVIYRKTLTGDVVGFVLSNALNITQTLNWLVRMTSEAETNIVAVERISEYINVENEAPWVTDKRPPADWPRHGEIQFNNYQVRYRPELDLVLKGITCNIKSGEKVGVVGRTGAGKSSLTNCLFRILESAGGQIIIDGIDVASIGLHDLRERLTIIPQDPILFSGSLRMNLDPFNKYSDEEVWRALELAHLRSFVSGLQLGLLSEVTEGGDNLSIGQRQLLCLGRAVLRKSKILVLDEATAAVDLETDSLIQTTIRKEFSQCTVITIAHRLHTIMDSDKIMVLDNGKIVEYGSPEELLSNRGSFYLMAKEAGIENVNHTEL
Km [4]: 0.25 µM | Km [5]: 1.5 µM | Km [6]: 5.2 µM
